The values below come from patent US12338205B2, “Crystalline form of 3-((L-valyl) amino)-1-propanesulfonic acid” (RISEN (SUZHOU) PHARMA TECH CO., LTD., priority 2018, dated 2025).

Series [1] in a line: Pharmacokinetics comparative experiment, plasma concentration by LC/MS2 after capsule intragastric administration. In kind it is in vivo. The following applies: SD rats, 133 mg/kg, solid capsule intragastric administration. From the text: By means of a pharmacokinetics comparative experiment, the […] feature of the crystalline form I provided herein after administration is compared with that of the amorphous solid of Example 1 as a reference sample.
SD rats (all male, weight of 260-280 g) were randomizely grouped, each group of 3 animals. The medication group received the crystalline form compound (No. S08S02S15a) of the Example 2, the crystalline form compound (No. S08S04S22a) of the Example 7, and the crystalline form compound (No. S08S19S24a) of the Example 8, respectively, and the control group received the reference sample (the amorphous solid of Example 1). The animals were fasted for 12 hours before administration, and the dosage of administration was 133 mg/kg. The corresponding medications were administered by intragastric administration using a solid capsule administration system (Size 9el Rat Box+Foam+Funnel+Syringe). Rat plasma samples were collected before administration, and 0.08, 0.16, 0.33, 0.5, 1, 1.5, 2, 3, 4, 6, and 8 h after administration, respectively. After heparin tube anticoagulation, centrifugation was performed at 5000 rpm for 10 min at a temperature of 4° C. A plasma supernatant sample was taken and subjected to protein precipitation using methanol, and then, the medication concentration in the plasma was monitored by LC/MS2.

Series [2] is described as follows: Thermogravimetric analysis (TGA). Conditions: for slow weight loss (TGA): before about 120° C., showing that it is an anhydrate; for decomposition temperature (TGA): nitrogen, ramp 10° C./min. The format is physicochemical. As for the experimental part:
The thermogravimetric analyzer (TGA) involved herein is Q500TGA from TA Instruments; detection conditions: a platinum crucible, a protective atmosphere of nitrogen, a gas flow rate of 40 mL/min; and the following detection method: a Hi-Res sensitivity of 3.0, ramp 10.00° C./min, res 5.0 to 120.00° C., and ramp 10.00° C./min to 350° C.

The mark [3] stands for this setting: compared with amorphous solid of Example 1.

As to `CC(C)[C@H](N)C(=O)NCCCS(=O)(=O)O` [Crystalline Form I, 3-((L-valyl)amino)-1-propanesulfonic acid], in series [1] (setting [3]), the “exposure AUC” value was “effectively improve”. Moreover, the “half-life period T1/2” value in series [1] (setting [3]) is given as “effectively improve”. For the same compound, the “maximum blood concentration Cmax” value in series [1] (setting [3]) is “effectively improve”. Moreover, in series [1] (compared with reference sample (amorphous solid of Example 1), FIGS. 21-24), the medication dissolution result is “improving”. For the same compound, the “slow weight loss (TGA)” value in series [2] (listed as Example 2) was “about 0.5 wt %”; in series [2] (listed as Example 6), “about 0.5 wt %”; in series [2] (listed as Example 7), “about 1.4 wt %”; in series [2] (listed as Example 8), “about 0.2 wt %”; in series [2] (listed as Example 9), “about 1.2 wt %”; in series [2] (listed as Example 14) it was “about 0.5 wt %”. Further, the “slow weight loss (TGA)” value in series [2] (listed as Example 24) is listed as “about 0.6 wt %”. Besides, the “decomposition temperature (TGA)” value in series [2] (listed as Example 2) was “about 307 °C”; in series [2] (listed as Example 6), “about 300 °C”; in series [2] (listed as Example 7), “about 302 °C”; in series [2] (listed as Example 8), “about 314 °C”; in series [2] (listed as Example 9), “about 303 °C”; in series [2] (listed as Example 14) it was “about 310 °C”. Moreover, in series [2] (listed as Example 24), the “decomposition temperature (TGA)” value was “about 317 °C”.
